Residue numbers refer to the chain shown, from its start. Values joined by “and” are separate entries in the source; they are usually repeats but may differ in a detail not shown here. Equal values may be shown once. One block for each molecule: values may come before it.
Legend:
T2R38 = target: T1, T2R38 (Homo sapiens, UniProt P59533, A49P/I296V); test: Single cell calcium imaging, Peakrapid cells (Gα16gustducin44) transiently transfected with T2R38; format: cell-based; details: for response of T2R38 PAV transfected cells (S7_fig raw data): individual values of experiments 1-5; for EC50: concentration-response curve, read-out: EC50; for logEC50: given in the concentration-response curve; for Emax (% of positive control): percentage of the response elicited by 0.1 mM PTC
T1 construct: leader: first 45 amino acids of rat somatostatin receptor subtype 3 (SSTR3) (N); expressed in transfected cells; host or cells: Peakrapid cells (HEK293 derivative, ATCC CRL-2828) stably expressing Galpha16gustducin44, co-transfected with human RTP4
T1 sequence (P59533 1-333 A49P/I296V): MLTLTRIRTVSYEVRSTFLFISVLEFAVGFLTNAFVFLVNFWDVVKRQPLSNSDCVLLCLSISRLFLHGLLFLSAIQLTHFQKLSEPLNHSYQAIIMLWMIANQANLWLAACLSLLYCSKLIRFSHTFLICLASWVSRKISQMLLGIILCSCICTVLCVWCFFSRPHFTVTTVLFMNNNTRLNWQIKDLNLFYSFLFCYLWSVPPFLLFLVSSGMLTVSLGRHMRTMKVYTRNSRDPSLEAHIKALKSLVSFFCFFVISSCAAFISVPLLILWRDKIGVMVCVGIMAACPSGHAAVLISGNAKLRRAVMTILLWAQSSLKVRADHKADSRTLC
Text: (§1) The coding sequences of either the functional (PAV, GenBank accession number AY258597.1) and non-functional (AVI, GenBank accession number AF494231.1) were amplified from human genomic DNA by polymerase chain reaction.
These coding sequences were cloned in a pEFIB backbone vector in translational fusion with the coding sequence of a leader sequence corresponding to the 45 first amino acids of the rat somatostatin receptor subtype 3 [20]. The constructs were verified by sequencing. The coding sequence of RTP4 (Genbank accession number AY562238.1) was amplified from human spleen cDNA and cloned a pCI backbone vector.
The Gα16gustducin44 sequence was generated by swapping the last 132 nucleotides of the G α16 with the corresponding terminal sequence of the Gα-gustducin [21] and was cloned in a pIRES-Puro plasmid. This vector was transfected in the Peakrapid cell line (ATCC reference: CRL-2828™; purchased from LGC Standards SARL, Molsheim, FRANCE), HEK293 cell line derivative, cultured in EMEM culture medium (reference BE12-136F; Lonza, Vervier, BELGIUM) supplemented with 10% of foetal bovine serum (Sigma-Aldrich, Bornem, Belgium) and 1 μg/ml of Puromycin to allow the selection of recombinant cell populations. Cell clones expressing the Gα16gustducin44 were selected and the clone presenting the best functional response of T2R38 to phenylthicarbamide was used for the study (see below).
(§2) The Peakrapid cell line expressing stably a chimeric Gα16gustducin44 G protein [21] was used. 40 000 cells were seeded in each well of a black/clear poly-D-lysine cellware pre-coated 96-well plate (Biocoat®, Becton-Dickinson, Erembodegem, Belgium) and transiently transfected with 50 ng of plasmid DNA containing the receptor sequence or not (empty vector) and with 50 ng of chaperone protein RTP4 per well. Forty hours after transfection, cells were incubated with the calcium-sensitive dye Fluo4 (Life Technologies, Oregon, USA) solubilized at 10 μg/ml in a buffer containing EMEM (150 mM NaCl, 5 mM KCl, 2 mM CaCl2, 1.2 mM MgCl2, 10 mM glucose), 10 mM HEPES, 0.01% (v/v) Pluronic F127, 0.1% (w/v) bovine serum albumin. After 1 h incubation at 37°C, cells were rinsed twice with the same buffer without Fluo4 and left in 50 μl buffer (prior ligand injection). Measurement were performed on a platform based on a motorized Axiobserver Z1 fluorescence microscope piloted by a Axiovision software (Zeiss, Jena, Germany) as described previously. For each selected well, images were taken 1 per second, during 30 seconds. 50 μl of the buffer containing the ligand twice concentrated was injected on the 2nd second of the time lapse record.
After time lapse record, the number of responding cells in each injected well was determined using ImageJ 1.34 (Rasband, W.S., ImageJ, National Institutes of Health, Bethesda, Maryland, USA, http://rsb.info.nih.gov/ij/1997-2004), and expressed as the percentage of the surface of a microscope field covered by activated cells with respect to the total surface of the field covered by confluent cells. Automated determination of the surface occupied by responding cells is easier to perform than a cell counting. The resulting percentage of positive surface provided a convenient estimation of the percentage of responding cells, as observed by comparing the percentage of positive surface and percentage of responsive cells determined by direct counting, in the same experiment. In agreement with the literature, the percentage of responding cells was proportional to the agonist concentration. During experiment in each plate, at least 2 wells were tested with phenylthiocarbamide (PTC) at 0.1 mM, which is one of the best characterized agonist of T2R38 in the literature. The activation of T2R38 by PTC allows normalization of the result of other tested molecules. The results were thus expressed as the percentage of PTC activation. […]

T2R38 AVI = target: T2, T2R38 AVI (Homo sapiens, UniProt P59533, A262V); test: Single cell calcium imaging, control: cells transfected with nonfunctional allele (AVI) of T2R38; format: cell-based; details: T2R38 AVI, individual values of experiments 1-5
T2 construct: leader: first 45 amino acids of rat somatostatin receptor subtype 3 (SSTR3) (N); expressed in transfected cells; host or cells: Peakrapid cells (HEK293 derivative, ATCC CRL-2828) stably expressing Galpha16gustducin44, co-transfected with human RTP4
T2 sequence (P59533 1-333 A262V): T1 sequence (P59533 1-333 A49P/I296V) with P49A, A262V, V296I
Experimental: as §1, §2
(§3) After time lapse record, the number of responding cells in each injected well was determined using ImageJ 1.34 (Rasband, W.S., ImageJ, National Institutes of Health, Bethesda, Maryland, USA, http://rsb.info.nih.gov/ij/1997-2004), and expressed as the percentage of the surface of a microscope field covered by activated cells with respect to the total surface of the field covered by confluent cells. Automated determination of the surface occupied by responding cells is easier to perform than a cell counting. The resulting percentage of positive surface provided a convenient estimation of the percentage of responding cells, as observed by comparing the percentage of positive surface and percentage of responsive cells determined by direct counting, in the same experiment. In agreement with the literature, the percentage of responding cells was proportional to the agonist concentration. During experiment in each plate, at least 2 wells were tested with phenylthiocarbamide (PTC) at 0.1 mM, which is one of the best characterized agonist of T2R38 in the literature. The activation of T2R38 by PTC allows normalization of the result of other tested molecules. The results were thus expressed as the percentage of PTC activation. In scaling calcium imaging assays using this latter receptor, concentration-responses curves were performed and data were fitted to a four parameter logistic equation: y=min+ (max− min)/1+10 ^(logEC50−x)nH . Min and max are the minimum and the maximum values of the percentage of cell-activated surface respectively, y is the percentage of cell-activated surface at the x concentration and nH is the Hill coefficient.

[1] = tested on: mock transfected cells (empty vector); test: Single cell calcium imaging, control: mock transfected (empty vector) Peakrapid cells; format: cell-based, human
Experimental: as §2, §3

[2] = 2 butanone 0.0003, log10[ ] -3.52288
[3] = 2 butanone 0.005, log10[ ] -2.30
[4] = 2 méthyl propanal 0.000398107, log10[ ] -3.4
[5] = 2 méthyl propanal 0.00251189, log10[ ] -2.6
[6] = 2 méthyl propanal 0.0158489, log10[ ] -1.8

Compound: CCC(C)=O [2-butanone]
- agonist activity on T2R38 (in words) (T2R38): able to specifically trigger this receptor
- percentage of surface covered by activated cells (T2R38; [2]): 0.29% and 0.34% and 0.44% and 0.21% and 0.00% and 0.15%
- percentage of surface covered by activated cells (T2R38; 2 butanone 0.001, log10[ ] -3): 0.13% and 1.98% and 3.16% and 3.22% and 0.15% and 0.22%
- percentage of surface covered by activated cells (T2R38; [3]): 0.54% and 0.83% and 7.88% and 6.11% and 2.08% and 3.12%
- response of T2R38 PAV transfected cells (S7_fig raw data) (T2R38): 17% and 13% and 2.7% and 11% and 15% and 12% and 7% and 6%
- EC50 (T2R38): 11 mM
- logEC50 (T2R38): -1.94
- Emax (% of positive control) (T2R38): 48 % of positive control
- response of T2R38 AVI transfected cells (S7_fig raw data) (T2R38 AVI): 0.268% and 0.426% and 0.699% and 0.605% and 0.163% and 0.0184% and 0.394% and 1%
- percentage of surface covered by activated cells [1, 2]: 0.39% and 0.10% and 0.28% and 0.31% and 0.23% and 0.40%
- percentage of surface covered by activated cells ([1]; 2 butanone 0.001, log10[ ] -3): 0.15% and 0.21% and 0.35% and 0.12% and 1.02% and 0.24%
- percentage of surface covered by activated cells [1, 3]: 0.20% and 0.26% and 0.34% and 0.21% and 0.24% and 0.71%
- percentage of surface covered by activated cells ([1]; 2 butanone 0.015, log10[ ] -1.82): 0.00% and 0.0352% and 0.31% and 0.18% and 0.33% and 0.26%
- percentage of surface covered by activated cells ([1]; 2 butanone 0.03, log10[ ] -1.52): 0.0659% and 0.02% and 0.27% and 0.40% and 0.08% and 0.25%
- percentage of surface covered by activated cells ([1]; 2 butanone 0.08, log10[ ] -1.09691): 0.25% and 0.75% and 3.48% and 1.23% and 0.22% and 1.04%

- EC50 (T2R38): 11 mM
- logEC50 (T2R38): -1.97
- Emax (% of positive control) (T2R38): 163 % of positive control
Compound: CC(C)C=O [2-methylpropanal]
- agonist activity on T2R38 (in words) (T2R38): able to specifically trigger this receptor
- percentage of surface covered by activated cells (T2R38; [4]): 0.29% and 0.95% and 0.86% and 0.39% and 1.39% and 0.60% and 1.13% and 1.16%
- percentage of surface covered by activated cells (T2R38; [5]): 1.62% and 0.54% and 2.22% and 1.87% and 1.50% and 1.18% and 5.46% and 4.93%
- percentage of surface covered by activated cells (T2R38; [6]): 36.19% and 28.82% and 26.57% and 24.12% and 23.76% and 32.56% and 40.19% and 33.93%
- response of T2R38 PAV transfected cells (S7_fig raw data) (T2R38; listed as 2 méthyl propanal): 27% and 16% and 28% and 14% (2×) and 8.51%
- response of T2R38 AVI transfected cells (S7_fig raw data) (T2R38 AVI; listed as 2 méthyl propanal): 1% (2×) and 2% and 1.41% and 0.831% and 1.15%
- percentage of surface covered by activated cells [1, 4]: 0.75% and 0.87% and 0.24% and 0.23% and 0.25% and 0.37% and 0.61%
- percentage of surface covered by activated cells [1, 5]: 0.28% and 0.65% and 0.25% and 0.23% and 1.49% and 1.18% and 0.31% and 0.37%
- percentage of surface covered by activated cells ([1]; 2 méthyl propanal 0.00398107, log10[ ] -2.4): 0.33% and 0.26% and 0.12% and 0.41% and 0.13% and 0.42% and 0.48% and 0.87%
- percentage of surface covered by activated cells ([1]; 2 méthyl propanal 0.00630957, log10[ ] -2.2): 0.35% and 0.63% and 0.24% and 0.06% and 0.59% and 0.25% and 0.34% and 0.85%
- percentage of surface covered by activated cells ([1]; 2 méthyl propanal 0.01, log10[ ] -2): 0.73% and 0.27% and 0.89% and 1.38% and 0.42% and 1.05% and 1.19% and 0.79%
- percentage of surface covered by activated cells [1, 6]: 1.86% and 0.33% and 2.42% and 3.28% and 1.11% and 1.32% and 3.65% and 5.14%

Reference: paper PMC5597121, “The human bitter taste receptor T2R38 is broadly tuned for bacterial compounds” (PLoS ONE, 2017)
